Paper PMC5768343, “A natural inhibitor of kidney-type glutaminase: a withanolide from Physalis pubescens with potent anti-tumor activity” (Oncotarget, 2017)
Where two headings read alike, the source gives them in different places.

System: human pancreatic cancer cells (SW1990)
Test: CCK8 cytotoxicity / proliferation assay, SW1990
Conditions: read-out: IC50 SW1990
Protocol: The SW1990, HT1080, and A375-S2 human tumor cell lines were obtained from ATCC (Manassas, VA, USA). […] SW1990, HT1080, and LO2 cells were cultured in DMEM medium with 10% fetal bovine serum (FBS). All of these cells were cultured at 37°C in a humidified atmosphere with 5% CO2. To estimate cell viability, cells (5000/well) were separately seeded in 96-well plates for 24 h at 37°C in a 5% CO2 incubator. […] All the experiments were performed in triplicate, and the mean absorbance values were calculated. The IC50 values of the compounds were derived from the mean OD values of the triplicate tests versus the drug concentration curves.
Cell proliferation was assessed by incubating them with Cell Counting Kit-8 reagents (Dojindo, Shanghai, China) for 24 h, 48 h, 72 h, 96 h at 37°C and measuring the absorbance at 450 nm. The experiment was performed in triplicate.

Row | Compound | IC50 (CCK8, 48 h) [µM] | IC50 (Homo sapiens, SW1990, 48 h) [µM]
1 | O=C(Cc1ccccc1)Nc1nnc(CCSCCc2nnc(NC(=O)Cc3ccccc3)s2)s1 [BPTES, reference compound] | 35.3 ± 0.67 | –
2 | O=C(Cc1cccc(OC(F)(F)F)c1)Nc1ccc(CCCCc2nnc(NC(=O)Cc3ccccn3)s2)nn1 [CB-839, reference compound] | – | 13.1 ± 0.57
